Source: PubChem BioAssay AID1645863 (Buhrlage Lab, Dana-Farber Cancer Institute and Novartis …, 2021)
Active and inactive are the calls of the source. No rule for the calls is given here.

Target: Ubiquitin carboxyl-terminal hydrolase 10 (Homo sapiens) (UniProt Q14694)
Assay: ubiquitin-specific protease 10 DUB inhibitors, concentration-effect, biochemical, verification of primary screen actives (AID 1645863);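 also: potency values describe inhibition of USP10 cleavage of a fluorogenic ubiquitin substrate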
Conditions: USP10 deubiquitinase enzymatic assay

Chain of Ubiquitin carboxyl-terminal hydrolase 10 (Homo sapiens) (Q14694 whole entry, looked up): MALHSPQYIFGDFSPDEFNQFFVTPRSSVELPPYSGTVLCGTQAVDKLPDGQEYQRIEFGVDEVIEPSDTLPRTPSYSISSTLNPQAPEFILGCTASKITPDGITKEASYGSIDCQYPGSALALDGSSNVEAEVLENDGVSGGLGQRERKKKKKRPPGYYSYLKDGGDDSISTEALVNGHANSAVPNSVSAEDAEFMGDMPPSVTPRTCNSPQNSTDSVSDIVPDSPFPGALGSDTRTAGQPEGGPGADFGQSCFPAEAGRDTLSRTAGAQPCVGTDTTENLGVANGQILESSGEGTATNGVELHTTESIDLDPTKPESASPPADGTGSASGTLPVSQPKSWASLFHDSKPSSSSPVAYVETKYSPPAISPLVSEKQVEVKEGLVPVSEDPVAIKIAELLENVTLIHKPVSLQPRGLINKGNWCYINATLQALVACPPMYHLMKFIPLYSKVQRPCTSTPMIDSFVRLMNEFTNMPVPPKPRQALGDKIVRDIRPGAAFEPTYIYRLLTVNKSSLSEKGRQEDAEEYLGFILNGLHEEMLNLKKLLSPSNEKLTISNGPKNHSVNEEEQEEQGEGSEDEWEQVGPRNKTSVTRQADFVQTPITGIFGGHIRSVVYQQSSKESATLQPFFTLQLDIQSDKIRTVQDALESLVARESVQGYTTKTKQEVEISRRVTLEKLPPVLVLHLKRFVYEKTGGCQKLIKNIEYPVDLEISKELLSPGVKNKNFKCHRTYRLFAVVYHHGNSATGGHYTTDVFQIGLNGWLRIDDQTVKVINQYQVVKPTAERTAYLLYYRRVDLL

SMILES	IC50
Cc1sc(NC(=O)c2ccc(S(=O)(=O)N(C)Cc3ccccc3)cc2)c(C(N)=O)c1C	> 40 µM (inactive)
O=C(Nc1ccc(NC(=O)c2ccccc2O)cc1)Nc1ccc(OCc2ccccc2)cc1	> 40 µM (inactive)
O=c1cc(-c2ccc(O)c(O)c2)oc2cc(O)cc(O)c12	1.8 µM
COc1ccc(C2NC(=O)NC(C)=C2C(=O)OCC2CCCCC2)cc1OC (stereo not drawn)	> 40 µM (inactive)
Cc1ccc(NC(=O)Nc2ccc(C)n(CC(=O)Nc3ccc(C)c(C)c3)c2=O)cc1	11.1 µM
O=C(Nc1c2c(nn1-c1ccc([N+](=O)[O-])cc1)CSC2)c1c(F)cccc1F	> 40 µM (inactive)
Cc1ccccc1-c1noc(-c2cn(Cc3ccc(NC(=O)Cc4ccccc4)cc3)cn2)n1	> 40 µM (inactive)
CCOc1ccccc1NC(=O)Cn1c(=O)n(CCCC(=O)NCc2ccc(C)cc2)c(=O)c2sccc21	> 40 µM (inactive)
Cc1ccc2nc(CNc3ccc(F)cc3C)cc(=O)n2c1	> 40 µM (inactive)
O=C(COC(=O)c1cc2c(s1)CCC2)c1ccc2[nH]c(=O)[nH]c2c1	> 40 µM (inactive)
O=C(CCCc1nnc2c(=O)n(-c3cccc(F)c3)ccn12)NCc1ccc(Cl)cc1	18.2 µM
CC(C)=CCc1c2c(c3occ(-c4ccc(O)c(O)c4)c(=O)c3c1O)C=CC(C)(C)O2	6.37 µM
Cc1nn(-c2ccccc2)c2c1N=C1C(Cl)=CC(Cl)=CN1C21C(=O)Nc2ccccc21 (stereo not drawn)	> 40 µM (inactive)
Cc1ncc(CO)c2c1Oc1nc(-c3cccc(Cl)c3)nc(SCC(=O)N3CCCCC3)c1C2	> 40 µM (inactive)
O=C(CSc1nnc2n(-c3ccccc3)c(=O)c3ccccc3n12)c1ccc(F)cc1	12.9 µM
O=C(Nc1ccccc1-c1nc2ccccc2[nH]1)c1sc2ccccc2c1Cl	9.23 µM
CC1=CC(=O)C(C2=C(O)C(=O)C(C)=CC2=O)=C(O)C1=O	12 µM
O=C(COc1ccc(C2CCCCC2)cc1)Nc1ccc(-c2nn3cnnc3s2)cc1	> 40 µM (inactive)
CCOc1ccc(-n2c(SCC(=O)Nc3ccc(C)cc3)nnc2-c2c[nH]c3ccccc23)cc1	8.92 µM
Cc1ccc2[nH]cc(S(=O)(=O)c3cc(F)cc(F)c3)c(=O)c2c1	> 40 µM (inactive)
COc1cc(C2CC(=O)c3c([nH]c(C(=O)OCCOc4ccccc4)c3C)C2)cc(OC)c1OC (stereo not drawn)	> 40 µM (inactive)
CCc1nc(SCC(=O)Nc2cc(Cl)ccc2C)c2oc3ccccc3c2n1	1.14 µM
Cc1ccc(-n2c(=O)[nH]c3c(C(N)=O)nc(-c4ccc(OCc5ccccc5)cc4)nc32)cc1	> 40 µM (inactive)
Cc1cc(C(=O)NC2(O)C(=O)c3ccccc3C2=O)n(C)n1	14.2 µM

SMILES	IC50
COc1ccc(-n2ccc(=O)c(-c3nc(-c4ccc(F)cc4)no3)n2)cc1	> 40 µM (inactive)
CCC(C(=O)C(C)C(O)C(C)CCc1ccc(C)c(O)c1C(=O)O)C1OC(CC)(C2CCC(O)(CC)C(C)O2)CC1C (stereo not drawn)	9.99 µM
COc1ccc(OC)c2c(C)cc(N3CC(C)CC(C)C3)nc12 (stereo not drawn)	> 40 µM (inactive)
COc1cccc(-c2cc(C(=O)Nc3cc(C)n(Cc4ccc(Cl)cc4)n3)no2)c1	> 40 µM (inactive)
COc1ccc(CCC(=O)Nc2nnc(C3CC(=O)N(c4ccc(C)cc4)C3)s2)cc1 (stereo not drawn)	13.6 µM
CCc1ccc(NC(=O)CSc2nc3nccnc3c(=O)n2Cc2ccc(F)cc2)cc1	> 40 µM (inactive)
CC(Nc1nnc(Cc2ccccc2)c(=O)[nH]1)c1ccccc1 (stereo not drawn)	> 40 µM (inactive)
Cc1ccnc(NS(=O)(=O)c2ccc(NC(=O)c3ccc(S(=O)(=O)N(C)Cc4ccccc4)cc3)cc2)n1	35.4 µM
Fc1cccc(Nc2ncnc3c2oc2ccccc23)c1	> 40 µM (inactive)
Cc1cccc(OCC2=NN3C(=N)/C(=C\c4cc(C)n(-c5cc(C)cc(C)c5)c4C)C(=O)N=C3S2)c1	> 40 µM (inactive)
O=C(CN1CC=C(c2ccccc2)CC1)Nc1ccc(S(=O)(=O)N2CCOCC2)cc1	> 40 µM (inactive)
Cc1ccc(-c2nc(NC(=O)COc3ccc(Cl)cc3)no2)cc1	13.5 µM
O=C1c2c(O)cccc2C2(Oc3cccc4cccc(c34)O2)C2OC12 (stereo not drawn)	15.5 µM
Cc1ccc(C(=O)NC(C)c2ccccc2)cc1NC(=O)c1nsc2ccccc12 (stereo not drawn)	27.9 µM
O=C(Nc1ccc2snnc2c1)Nc1ccc(F)cc1F	> 40 µM (inactive)
C/C=C/C=C/[C@@H]1Cc2cc(O)cc(O)c2O1	35.6 µM
Cc1ccccc1-c1noc(-c2cccn(CC(=O)Nc3ccccc3F)c2=O)n1	> 40 µM (inactive)
O=C(Nc1cccc(Br)c1)c1cc(-c2cccnc2)n[nH]1	19.9 µM
COc1ccc(NC(=O)[C@H](C)NC(=O)c2cc3c(OC)cccc3[nH]2)cc1Cl	37.9 µM
O=C(CSc1nnc2c3ccccc3nc(-c3ccco3)n12)N1CCCc2ccccc21	3.82 µM
Cc1occ2c1C(=O)c1c(O)ccc(O)c1C2	4.8 µM
Cc1nnc(-c2ccc3ccn(CC(=O)N4CCN(c5ccccc5)CC4)c3c2)o1	> 40 µM (inactive)
CC(C)=CCCC1(C)C=Cc2c(O)c3c(c(CC=C(C)C)c2O1)OC12C(=CC4CC1C(C)(C)OC2(C/C=C(/C)C(=O)O)C4=O)C3=O (stereo not drawn)	9.59 µM
COc1ccc(-c2noc(CC(=O)Nc3cccc(OC)c3)n2)cc1	> 40 µM (inactive)

SMILES	IC50
Cc1nc(N2CCN(c3ccc(Cl)cc3)CC2)c2oc3ccccc3c2n1	17.7 µM
O=C(/C=C/c1ccco1)c1cccc([N+](=O)[O-])c1	35.1 µM
Cc1cc(CN2CCCCC2c2cc(=O)n3ccnc3[nH]2)no1 (stereo not drawn)	> 40 µM (inactive)
Cc1ccc(NC(=O)Nc2ccc(C)n(CC(=O)Nc3cccc(C)c3)c2=O)cc1	> 40 µM (inactive)
O=C(Nc1cccc(Cl)c1)c1cc(-c2cccnc2)n[nH]1	> 40 µM (inactive)
COc1cccc(-n2cnc3cc(C(=O)NCCc4ccccc4)ccc3c2=O)c1	19.8 µM
CCCCOc1ccc(C(=O)n2ccn(S(=O)(=O)c3ccc(C)cc3)c2=O)cc1	> 40 µM (inactive)
Cc1cc(NS(=O)(=O)c2ccc(NC(=O)c3ccc(N4CCCC4)c([N+](=O)[O-])c3)cc2)no1	34.8 µM
COCCn1c(=O)[nH]c2cc(C(=O)NCCNc3ccc([N+](=O)[O-])cc3C#N)ccc2c1=O	15.5 µM
Cc1ccc(NC(=O)c2cc(-c3ccccn3)nc3c(Cl)cccc23)nc1	> 40 µM (inactive)
COc1ccc(C)cc1NC(=O)C1CC(=O)Nc2nc3ccccc3n21 (stereo not drawn)	28.1 µM
COc1cc2c(c(OC)c1OC)-c1ccc(NCCc3cccc(F)c3)c(=O)cc1[C@@H](NC(C)=O)CC2	> 40 µM (inactive)
Cc1noc(-c2cc(=O)n(CC(=O)Nc3ccccc3Cl)c3ccccc23)n1	14.4 µM
CNc1ccc(-c2noc([C@@H]3CCCN3Cc3cccc(C#N)c3)n2)cn1	> 40 µM (inactive)
O=S(=O)(Nc1ccc(Oc2ncnc3cc(Cl)ccc23)nc1)c1ccc(S(=O)(=O)c2ccccc2)s1	29.5 µM
Cc1ccc2c(c1)c(=O)c(C(=O)c1ccccc1)cn2CC(=O)Nc1ccc2c(c1)OCO2	> 40 µM (inactive)
COc1cc(OC)c(NC(=O)c2cc(-c3ccccn3)n[nH]2)cc1Cl	28.9 µM
O=C(CCn1c(=O)c2ccccc2n(Cc2ccc(F)cc2Cl)c1=O)NCc1ccco1	27.6 µM
Cc1csc(NC(=O)c2c[nH]c3ccc(F)cc3c2=O)n1	> 40 µM (inactive)
Cc1ccc(-c2nc3c(c(SCC(=O)c4ccccc4)n2)COC(C)(C)C3)cc1	> 40 µM (inactive)
CC/C=C\C/C=C\C/C=C\CCCCCCCC(=O)O	11.9 µM
CCOC(=O)c1ccc(NC(=O)Cn2c(=O)n(CC(=O)NCc3ccco3)c(=O)c3ccccc32)cc1	16.2 µM
CSc1ccc(CNC(=O)Cn2nc(C)c3c(C)n(-c4ccccc4)nc3c2=O)cc1	10.3 µM
COc1ccc(-n2c(=O)c3ccc(C(=O)NCCc4ccccc4)cc3n(CC(=O)NCc3ccco3)c2=O)cc1	> 40 µM (inactive)

SMILES	IC50
Nc1c(-c2ccc(Cl)cc2)cnc2cc(-c3ccc(Cl)c(Cl)c3)nn12	> 40 µM (inactive)
COc1ccc(S(=O)(=O)N2CCc3ccccc32)cc1C(=O)Nc1ccc2c(c1)NC(=O)C(C)O2 (stereo not drawn)	> 40 µM (inactive)
COc1cccc(NC(=O)c2cnc(N3CCCC3)nc2C)c1	> 40 µM (inactive)
CCOc1ccc(-c2nnc(-c3cnc4onc(C5CCCC5)c4c3)o2)cc1	25 µM
CCCCCCCCC/C=C/C(=O)CCc1c(O)c(C=O)c2c(c1O)C(=O)OC2O (stereo not drawn)	0.584 µM
CCOc1ccc(NC(=O)Cn2c(=O)n(CCCCCC(=O)NCc3ccc(F)cc3)c(=O)c3sccc32)cc1	17.7 µM
CC(C)CCCCCCCCCCC(=O)N(C)[C@H](CO)C(=O)N[C@H](C)C(=O)NCC(=O)N(C)C1C(=O)N[C@@H](C)C(=O)NC(C(=O)O)Cc2ccc(O)c(c2)-c2cc1ccc2O (stereo partly drawn)	34.4 µM
O=C(Cc1ccc(-n2c(=O)c3ccccc3n(Cc3cccc([N+](=O)[O-])c3)c2=O)cc1)NC1CCCC1	> 40 µM (inactive)
C=C/C(=C/C(=O)C[C@H](C)C[C@@H](C)CC[C@H](O)[C@H](C)C(=O)CC(O)[C@H](C)[C@@H](C)OC(=O)C[C@@H](O)C1=C(C)C(=O)OC1=O)CC (stereo partly drawn)	9.16 µM
CCOc1ccc(-c2nc(SCC(=O)Nc3cccc(C)c3)n3[nH]c(=O)cc3n2)cc1	> 40 µM (inactive)
O=C(Nc1ccc(Cl)cc1F)c1cc(-c2ccccn2)n[nH]1	> 40 µM (inactive)
COc1cccc(N2CCCN(C(=O)c3ccc4nc(C)[nH]c4c3)CC2)c1	> 40 µM (inactive)
O=C(Cn1nnc2ccccc21)Nc1nc(-c2ccc3c(c2)CCN3C(=O)c2ccccc2F)cs1	34.9 µM
CCOc1ccc(C2SCC(=O)Nc3c2c(=O)[nH]n3C2CCCCC2)cc1 (stereo not drawn)	> 40 µM (inactive)
O=C(O)c1nccnc1C(=O)N1CCc2ccccc2C1	> 40 µM (inactive)
COc1ccccc1-c1nc(-c2cn(-c3cccc(Cl)c3)nn2)no1	25.6 µM
Cc1ncc(-c2ccc3c(c2)OCO3)c(-c2nccs2)n1	> 40 µM (inactive)
COc1ccc(NC(=O)c2cc(-c3cccnc3)n[nH]2)cc1Cl	28.5 µM
Cc1ccc(Cn2cc(C(=O)Nc3ccccc3C(N)=O)ccc2=O)cc1	2.81 µM
COc1ccc(S(=O)(=O)NCc2ccc3c(c2)cc(C)n3C)cc1	> 40 µM (inactive)
Cc1ccc2cc(-c3noc(CCC(=O)NC4CCCC4)n3)c(=O)[nH]c2c1	> 40 µM (inactive)
